In article PMC10794144, “A novel antibiotic class targeting the lipopolysaccharide transporter” (Nature, 2024):
Like-named read-outs stand apart in the source and are kept apart here.

Key:
Phosphodiesterase 4D2 = target: T1, Phosphodiesterase 4D2 (Homo sapiens, UniProt Q08499); experiment: Off-target screening (CEREP); type: biochemical; details: read-out: percent inhibition
T1 construct: purchased Eurofins CEREP SA
Description: (§1) Supplementary Table 1 │ Off-target activity screening f or MCP compou nds […]
(§2) The assays given in the table above were conducted at Eurofins CEREP S A (Celle-Lévescault, France) and were run as single point measurements in duplicates in the presence of 10 µ M of the test compound and reported as percent inhibition of the radioligand signal or control enzymatic activity. n.d., not

Cyclooxygenase 2 = target: T2, Cyclooxygenase 2 (Homo sapiens, UniProt P35354); experiment: Off-target screening (CEREP); type: biochemical; details: read-out: percent inhibition
T2 construct: purchased Eurofins CEREP SA
T2 sequence (P35354 18-604): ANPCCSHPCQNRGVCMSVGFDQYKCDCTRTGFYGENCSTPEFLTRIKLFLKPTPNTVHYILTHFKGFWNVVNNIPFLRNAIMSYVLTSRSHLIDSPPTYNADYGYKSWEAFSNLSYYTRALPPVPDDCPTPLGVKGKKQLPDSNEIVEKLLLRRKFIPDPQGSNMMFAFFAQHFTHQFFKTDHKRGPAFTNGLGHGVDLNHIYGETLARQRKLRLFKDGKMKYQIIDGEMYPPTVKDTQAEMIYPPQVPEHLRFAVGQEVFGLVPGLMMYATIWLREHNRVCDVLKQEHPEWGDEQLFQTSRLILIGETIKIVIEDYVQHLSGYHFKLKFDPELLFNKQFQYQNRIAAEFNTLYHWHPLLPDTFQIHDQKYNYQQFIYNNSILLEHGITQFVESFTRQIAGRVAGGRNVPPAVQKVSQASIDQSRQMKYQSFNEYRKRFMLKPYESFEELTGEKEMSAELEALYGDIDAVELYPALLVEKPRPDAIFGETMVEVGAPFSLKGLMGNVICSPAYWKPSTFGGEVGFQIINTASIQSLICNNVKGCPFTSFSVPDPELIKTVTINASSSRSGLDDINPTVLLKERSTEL
Description: as §1, §2

ZAP70 kinase = target: T3, ZAP70 kinase (Homo sapiens, UniProt P43403); experiment: Off-target screening (CEREP); type: biochemical; details: read-out: percent inhibition
T3 construct: purchased Eurofins CEREP SA
T3 sequence (P43403 1-619): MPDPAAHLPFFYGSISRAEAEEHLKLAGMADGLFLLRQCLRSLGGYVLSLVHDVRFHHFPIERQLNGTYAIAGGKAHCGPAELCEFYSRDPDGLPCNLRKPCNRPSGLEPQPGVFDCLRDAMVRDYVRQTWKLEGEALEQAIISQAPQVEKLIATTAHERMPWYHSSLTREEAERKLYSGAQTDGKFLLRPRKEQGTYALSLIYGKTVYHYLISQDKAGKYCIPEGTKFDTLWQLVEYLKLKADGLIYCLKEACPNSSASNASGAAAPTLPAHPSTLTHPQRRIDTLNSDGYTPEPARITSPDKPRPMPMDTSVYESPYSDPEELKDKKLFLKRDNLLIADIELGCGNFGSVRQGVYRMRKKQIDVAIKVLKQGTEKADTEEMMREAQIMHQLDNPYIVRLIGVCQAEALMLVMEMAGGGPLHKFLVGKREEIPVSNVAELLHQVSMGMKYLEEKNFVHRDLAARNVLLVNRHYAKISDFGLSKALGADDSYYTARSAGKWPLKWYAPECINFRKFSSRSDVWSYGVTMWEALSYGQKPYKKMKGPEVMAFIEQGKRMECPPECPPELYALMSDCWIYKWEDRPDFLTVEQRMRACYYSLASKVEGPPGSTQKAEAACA
Description: as §1, §2

GSK-3A = target: T4, GSK-3A (Homo sapiens, UniProt P49840); experiment: Off-target screening (CEREP); type: biochemical; details: read-out: percent inhibition
T4 construct: purchased Eurofins CEREP SA
Description: as §1, §2

Monoamine oxidase-A = target: T5, Monoamine oxidase-A (Homo sapiens, UniProt P21397); experiment: Off-target screening (CEREP); type: biochemical; details: read-out: percent inhibition
T5 construct: purchased Eurofins CEREP SA
T5 sequence (P21397 1-527): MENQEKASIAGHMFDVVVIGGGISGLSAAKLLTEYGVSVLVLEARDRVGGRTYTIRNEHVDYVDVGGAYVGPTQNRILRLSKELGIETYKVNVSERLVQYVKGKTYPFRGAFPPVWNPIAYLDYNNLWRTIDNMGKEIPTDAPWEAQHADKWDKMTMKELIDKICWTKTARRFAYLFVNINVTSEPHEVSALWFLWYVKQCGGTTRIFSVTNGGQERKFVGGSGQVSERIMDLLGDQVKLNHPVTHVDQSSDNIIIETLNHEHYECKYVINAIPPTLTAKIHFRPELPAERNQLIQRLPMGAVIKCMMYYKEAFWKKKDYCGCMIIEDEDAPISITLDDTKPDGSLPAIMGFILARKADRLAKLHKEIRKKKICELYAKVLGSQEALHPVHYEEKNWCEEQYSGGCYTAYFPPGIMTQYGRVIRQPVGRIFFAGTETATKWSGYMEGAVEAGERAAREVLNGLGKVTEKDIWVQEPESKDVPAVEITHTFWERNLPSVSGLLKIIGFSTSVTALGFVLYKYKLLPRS
Description: as §1, §2

Matrix metalloprotease-9 = target: T6, Matrix metalloprotease-9 (Homo sapiens, UniProt P14780); experiment: Off-target screening (CEREP); type: biochemical; details: read-out: percent inhibition
T6 construct: purchased Eurofins CEREP SA
Description: as §1, §2

Phosphodiesterase 3B = target: T7, Phosphodiesterase 3B (Homo sapiens, UniProt Q13370); experiment: Off-target screening (CEREP); type: biochemical; details: read-out: percent inhibition
T7 construct: purchased Eurofins CEREP SA
Description: as §1, §2

HIV-1 protease = experiment: Off-target screening (CEREP); type: biochemical; details: 10 µM, duplicates
Description: as §1, §2

Acetylcholinesterase = target: T8, Acetylcholinesterase (Homo sapiens, UniProt P22303); experiment: Off-target screening (CEREP); type: biochemical; details: read-out: percent inhibition
T8 construct: purchased Eurofins CEREP SA
Description: as §1, §2

Xanthine oxidase = target: T9, Xanthine oxidase (Bos taurus, UniProt P80457); experiment: Off-target screening (CEREP); type: biochemical, bovine; details: read-out: percent inhibition
T9 construct: purchased Eurofins CEREP SA
Description: as §1, §2

[1] = system: Nicotinic receptor, neuronal; experiment: Off-target screening (CEREP); type: binding, human; details: 10 µM, duplicates
Description: as §1, §2

[2] = system: Nicotinic receptor, muscle; experiment: Off-target screening (CEREP); type: binding, human; details: 10 µM, duplicates
Description: as §1, §2

hERG = hERG (Homo sapiens, UniProt Q12809); experiment: hERG
A. baumannii = experiment: Immunocompetent mouse septicaemia infection model; type: in vivo; details: for Survivors, individual mouse status: ACC00445 septicaemia
Description: Septicaemia was induced in CD-1 immunocompetent male mice by an intraperitoneal inoculation of a bacterial suspension of the tested A. baumannii isolate at a challenge of approximately 1–2 log[CFU] above the determined median lethal dose (resulting in 10^5 to 10^7 CFU per mouse). […] Mouse survival was followed over 6–7 days. GraphPad Prism 8 was used for graphical presentation of the data. Septicaemia studies with mutant derivative isolates obtained in resistance studies were performed as described above, using a bacterial challenge as determined for the parental isolate.

hERG, sequence (Q12809 whole entry): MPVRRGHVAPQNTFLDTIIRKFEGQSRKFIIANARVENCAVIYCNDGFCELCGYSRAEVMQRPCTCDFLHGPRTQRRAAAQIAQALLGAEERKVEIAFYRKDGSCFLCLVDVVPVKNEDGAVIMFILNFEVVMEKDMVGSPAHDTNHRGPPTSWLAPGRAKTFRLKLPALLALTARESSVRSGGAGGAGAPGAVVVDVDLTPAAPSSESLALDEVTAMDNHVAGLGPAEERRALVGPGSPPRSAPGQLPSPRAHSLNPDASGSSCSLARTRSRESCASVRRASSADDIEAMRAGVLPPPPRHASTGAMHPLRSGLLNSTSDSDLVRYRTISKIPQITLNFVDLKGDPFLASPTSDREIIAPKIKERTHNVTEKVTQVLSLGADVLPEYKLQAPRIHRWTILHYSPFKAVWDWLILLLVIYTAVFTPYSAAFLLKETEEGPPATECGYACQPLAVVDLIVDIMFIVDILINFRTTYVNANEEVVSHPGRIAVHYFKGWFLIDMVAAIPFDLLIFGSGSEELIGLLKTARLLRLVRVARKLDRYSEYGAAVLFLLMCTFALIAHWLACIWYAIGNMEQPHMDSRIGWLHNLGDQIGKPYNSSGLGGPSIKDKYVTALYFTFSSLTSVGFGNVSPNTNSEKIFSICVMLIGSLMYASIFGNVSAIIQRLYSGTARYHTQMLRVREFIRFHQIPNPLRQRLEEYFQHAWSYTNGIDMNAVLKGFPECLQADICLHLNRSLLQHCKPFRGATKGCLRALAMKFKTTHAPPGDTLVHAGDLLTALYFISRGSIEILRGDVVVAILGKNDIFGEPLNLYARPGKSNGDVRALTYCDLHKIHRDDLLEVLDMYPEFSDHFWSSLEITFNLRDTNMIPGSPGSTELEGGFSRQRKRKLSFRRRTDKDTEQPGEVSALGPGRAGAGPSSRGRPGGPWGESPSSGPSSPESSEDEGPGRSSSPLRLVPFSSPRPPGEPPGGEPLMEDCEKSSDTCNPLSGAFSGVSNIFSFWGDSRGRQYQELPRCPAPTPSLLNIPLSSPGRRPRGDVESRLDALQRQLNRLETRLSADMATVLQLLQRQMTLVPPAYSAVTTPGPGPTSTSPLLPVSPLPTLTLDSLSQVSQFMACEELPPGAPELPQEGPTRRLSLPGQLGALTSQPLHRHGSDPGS
T9 sequence (P80457 whole entry): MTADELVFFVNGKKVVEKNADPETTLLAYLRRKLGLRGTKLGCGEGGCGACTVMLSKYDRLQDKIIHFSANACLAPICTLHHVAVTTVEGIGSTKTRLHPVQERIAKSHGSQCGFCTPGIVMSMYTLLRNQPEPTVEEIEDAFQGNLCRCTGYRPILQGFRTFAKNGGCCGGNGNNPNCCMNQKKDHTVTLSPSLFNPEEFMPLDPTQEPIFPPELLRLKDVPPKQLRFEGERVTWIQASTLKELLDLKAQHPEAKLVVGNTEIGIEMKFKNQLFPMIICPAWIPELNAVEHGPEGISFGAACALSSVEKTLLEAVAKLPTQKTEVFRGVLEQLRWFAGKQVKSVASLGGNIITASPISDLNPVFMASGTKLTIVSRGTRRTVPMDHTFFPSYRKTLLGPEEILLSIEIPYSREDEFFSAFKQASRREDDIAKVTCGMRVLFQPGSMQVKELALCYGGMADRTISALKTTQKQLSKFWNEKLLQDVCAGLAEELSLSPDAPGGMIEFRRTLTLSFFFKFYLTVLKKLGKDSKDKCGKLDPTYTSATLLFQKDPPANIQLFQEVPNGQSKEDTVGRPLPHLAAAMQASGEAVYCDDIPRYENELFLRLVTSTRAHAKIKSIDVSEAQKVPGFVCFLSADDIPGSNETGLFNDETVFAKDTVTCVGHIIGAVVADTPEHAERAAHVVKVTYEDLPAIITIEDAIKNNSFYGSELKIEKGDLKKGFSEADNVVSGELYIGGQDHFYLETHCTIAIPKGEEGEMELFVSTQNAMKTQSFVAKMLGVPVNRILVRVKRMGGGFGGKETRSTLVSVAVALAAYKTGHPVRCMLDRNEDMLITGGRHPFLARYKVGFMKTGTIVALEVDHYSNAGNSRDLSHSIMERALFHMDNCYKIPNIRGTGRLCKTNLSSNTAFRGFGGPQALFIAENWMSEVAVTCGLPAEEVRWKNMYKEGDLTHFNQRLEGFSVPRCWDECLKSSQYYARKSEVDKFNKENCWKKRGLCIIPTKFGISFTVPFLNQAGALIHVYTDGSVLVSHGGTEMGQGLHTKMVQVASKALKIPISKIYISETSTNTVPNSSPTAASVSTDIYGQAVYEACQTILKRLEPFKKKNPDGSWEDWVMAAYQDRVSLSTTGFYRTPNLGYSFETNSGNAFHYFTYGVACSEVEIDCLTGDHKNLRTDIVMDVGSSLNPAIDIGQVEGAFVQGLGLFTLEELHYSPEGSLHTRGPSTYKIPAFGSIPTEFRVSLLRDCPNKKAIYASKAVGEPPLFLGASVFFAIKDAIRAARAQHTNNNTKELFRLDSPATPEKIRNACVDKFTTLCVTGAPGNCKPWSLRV
T1 sequence (Q08499 303-809 limits assumed): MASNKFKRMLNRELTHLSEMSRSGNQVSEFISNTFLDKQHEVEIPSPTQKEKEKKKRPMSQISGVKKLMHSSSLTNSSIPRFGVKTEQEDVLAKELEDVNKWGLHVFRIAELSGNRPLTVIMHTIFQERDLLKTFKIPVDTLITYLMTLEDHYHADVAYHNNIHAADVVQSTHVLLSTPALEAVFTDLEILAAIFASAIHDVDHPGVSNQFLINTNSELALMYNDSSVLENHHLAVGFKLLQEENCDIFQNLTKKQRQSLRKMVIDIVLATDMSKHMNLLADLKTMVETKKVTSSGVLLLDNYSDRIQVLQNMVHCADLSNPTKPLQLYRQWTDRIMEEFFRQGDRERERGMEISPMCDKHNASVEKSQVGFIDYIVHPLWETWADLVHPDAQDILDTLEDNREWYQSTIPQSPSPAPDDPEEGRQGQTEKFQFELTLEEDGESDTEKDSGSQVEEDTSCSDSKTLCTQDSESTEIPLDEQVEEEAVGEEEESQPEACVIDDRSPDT
T4 sequence (P49840 whole entry): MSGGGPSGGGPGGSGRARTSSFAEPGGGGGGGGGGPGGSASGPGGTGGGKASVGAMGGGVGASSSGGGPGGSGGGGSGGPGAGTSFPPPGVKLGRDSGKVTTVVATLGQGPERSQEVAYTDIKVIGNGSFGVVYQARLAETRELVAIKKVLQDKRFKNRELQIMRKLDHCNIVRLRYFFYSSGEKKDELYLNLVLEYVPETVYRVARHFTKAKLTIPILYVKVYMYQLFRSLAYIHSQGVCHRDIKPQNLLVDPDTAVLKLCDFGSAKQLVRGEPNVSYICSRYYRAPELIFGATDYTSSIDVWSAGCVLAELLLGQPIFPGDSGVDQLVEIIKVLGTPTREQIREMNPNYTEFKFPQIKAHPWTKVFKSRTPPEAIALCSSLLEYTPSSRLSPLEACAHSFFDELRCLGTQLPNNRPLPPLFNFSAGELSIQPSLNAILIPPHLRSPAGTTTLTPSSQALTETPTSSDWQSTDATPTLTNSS
T8 sequence (P22303 32-614): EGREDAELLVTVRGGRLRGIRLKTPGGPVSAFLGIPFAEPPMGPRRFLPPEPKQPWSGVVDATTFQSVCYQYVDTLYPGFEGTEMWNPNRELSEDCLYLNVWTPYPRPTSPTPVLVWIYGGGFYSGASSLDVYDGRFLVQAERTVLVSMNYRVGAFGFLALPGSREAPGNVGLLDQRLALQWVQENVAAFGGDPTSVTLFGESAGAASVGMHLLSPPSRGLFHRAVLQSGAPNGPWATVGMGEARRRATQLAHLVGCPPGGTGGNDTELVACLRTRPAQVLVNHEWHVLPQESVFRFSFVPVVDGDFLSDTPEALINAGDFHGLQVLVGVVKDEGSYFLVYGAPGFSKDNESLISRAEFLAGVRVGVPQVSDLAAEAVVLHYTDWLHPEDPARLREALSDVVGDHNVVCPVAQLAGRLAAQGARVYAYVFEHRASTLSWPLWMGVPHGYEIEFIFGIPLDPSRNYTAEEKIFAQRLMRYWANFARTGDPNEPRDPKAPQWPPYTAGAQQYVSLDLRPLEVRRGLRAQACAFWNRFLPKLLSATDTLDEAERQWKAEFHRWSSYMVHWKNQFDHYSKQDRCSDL
T6 sequence (P14780 94-707): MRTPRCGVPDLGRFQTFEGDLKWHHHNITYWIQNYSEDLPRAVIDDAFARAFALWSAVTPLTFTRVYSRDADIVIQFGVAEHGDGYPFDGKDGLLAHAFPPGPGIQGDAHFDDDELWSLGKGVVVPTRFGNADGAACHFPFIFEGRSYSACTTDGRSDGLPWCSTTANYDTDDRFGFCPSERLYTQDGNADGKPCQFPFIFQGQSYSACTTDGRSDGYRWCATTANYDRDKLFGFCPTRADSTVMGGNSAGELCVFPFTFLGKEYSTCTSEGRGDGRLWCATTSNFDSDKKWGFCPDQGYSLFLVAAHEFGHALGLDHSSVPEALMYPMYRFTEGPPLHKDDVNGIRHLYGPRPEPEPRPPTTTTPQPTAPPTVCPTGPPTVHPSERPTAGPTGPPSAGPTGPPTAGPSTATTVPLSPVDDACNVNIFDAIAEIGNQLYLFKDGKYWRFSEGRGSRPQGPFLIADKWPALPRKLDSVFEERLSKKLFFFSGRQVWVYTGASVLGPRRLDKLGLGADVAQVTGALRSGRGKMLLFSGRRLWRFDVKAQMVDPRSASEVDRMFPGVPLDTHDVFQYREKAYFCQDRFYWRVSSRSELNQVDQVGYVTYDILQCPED

CN1C(=O)[C@H](CCCCN)NC(=O)[C@H](CCCN)NCc2cccnc2Sc2c(Cl)ccc(-c3ccc(C(=O)O)cc3)c2CNC(=O)[C@@H]1Cc1c[nH]c2ccccc12 [RO7202110]
inhibition at 10 µM (Phosphodiesterase 4D2; 10 µM, duplicates): -3% | inhibition at 10 µM (Cyclooxygenase 2; 10 µM, duplicates): 12% | inhibition at 10 µM (ZAP70 kinase; 10 µM, duplicates): -39% | inhibition at 10 µM (GSK-3A; 10 µM, duplicates): 22% | inhibition at 10 µM (Monoamine oxidase-A; 10 µM, duplicates): 11% | inhibition at 10 µM (Matrix metalloprotease-9; 10 µM, duplicates): 13% | inhibition at 10 µM (Phosphodiesterase 3B; 10 µM, duplicates): 2% | percent inhibition (HIV-1 protease): 12% | inhibition at 10 µM (Acetylcholinesterase; 10 µM, duplicates): 40% | inhibition at 10 µM (Xanthine oxidase; 10 µM, duplicates): 0% | percent inhibition [1]: 4% | percent inhibition [2]: 11% | IC50 (hERG): > 20 µM | hERG IC20 (hERG): > 10 µM

C[C@@H](O)[C@H]1C(=O)N2C(C(=O)O)=C(S[C@@H]3CN[C@H](C(=O)N(C)C)C3)[C@H](C)[C@H]12 [meropenem, reference compound]
Survivors, individual mouse status (A. baumannii; 80 mg/kg, Day 1): 1 | Survivors, individual mouse status (A. baumannii; 80 mg/kg, Day 2): 1 | Survivors, 2016-02-03 (A. baumannii; murine septicaemia, MDR A. baumannii APV00535 (ACC00535), Meropenem 80 mg/kg, mark per mouse (10 mice), study VDD3948): 1

CN1C(=O)[C@H](CCCCN)NC(=O)[C@H](CCCN)NCc2cccnc2Sc2cccc(-c3ccc(C(=O)O)cc3)c2CNC(=O)[C@@H]1Cc1c[nH]c2ccccc12 [zosurabalpin]
inhibition at 10 µM (Phosphodiesterase 4D2): 12% | inhibition at 10 µM (Cyclooxygenase 2): -7% | inhibition at 10 µM (ZAP70 kinase): 1% | inhibition at 10 µM (GSK-3A): -1% | inhibition at 10 µM (Monoamine oxidase-A): 2% | inhibition at 10 µM (Matrix metalloprotease-9): 10% | inhibition at 10 µM (Phosphodiesterase 3B): 2% | percent inhibition (HIV-1 protease): 16% | inhibition at 10 µM (Acetylcholinesterase): 13% | inhibition at 10 µM (Xanthine oxidase): 5% | Survival rate from sepsis, treated (A. baumannii; ACC00445 parental, 2 x 30mg/kg s.c., vehicle 0): 0/100% | Survivors, individual mouse status (A. baumannii; 0.3 mg/kg s.c. at 1 and 5 h, Day 1): 1 | Survival rate from sepsis, treated (A. baumannii; ACC00535 parental, 2 x 30mg/kg, vehicle 0): 0/100% | Survival rate from sepsis, treated (A. baumannii; ROB08706 parental, 2 x 30mg/kg, vehicle 0): 0/100% | Survival rate from sepsis, treated (A. baumannii; ROB08708 parental, 2 x 30mg/kg, vehicle 0): 0/100% | Survival rate from sepsis, treated (A. baumannii; ROB08961 (LpxM NS), 2 x 30mg/kg, vehicle 100): 100/100% | Survival rate from sepsis, treated (A. baumannii; ROB08979 (LptF R322L), 2 x 30mg/kg, vehicle 25): 25/50% | Survival rate from sepsis, treated (A. baumannii; ROB08982 (lpxM ISAba1), 2 x 30mg/kg, vehicle 87.5): 87.5/100% | Survival rate from sepsis, treated (A. baumannii; ROB08985 (LpxM NS), 2 x 30mg/kg, vehicle 100): 100/100% | Survival rate from sepsis, treated (A. baumannii; ROB08997 (LptF I323K), 2 x 30mg/kg, vehicle 0): 0/0% | Survival rate from sepsis, treated (A. baumannii; ROB08998 (AdeR A91V), 2 x 30mg/kg, vehicle 12.5): 12.5/100% | Survival rate from sepsis, treated (A. baumannii; ROB09000 (lpxM ISAba1), 2 x 30mg/kg, vehicle 100): 100/100% | Survival rate from sepsis, treated (A. baumannii; ROB21530 (LptF W271S), 2 x 30mg/kg, vehicle 25): 25/37.5% | Survival rate from sepsis, treated (A. baumannii; ROB21531 (LptG G40D), 2 x 30mg/kg, vehicle 0): 0/87.5% | Survival rate from sepsis, treated (A. baumannii; ROB21532 (LptF R322C), 2 x 30mg/kg, vehicle 50): 50/50% | Survival rate from sepsis, treated (A. baumannii; ROB21533 (LptF I317L), 2 x 30mg/kg, vehicle 0): 0/0% | Survival rate from sepsis, treated (A. baumannii; ROB23370 (adeS ISAba1), 2 x 30mg/kg, vehicle 0): 0/75% | Survival rate from sepsis, treated (A. baumannii; ROB23371 (AdeS R152K), 2 x 30mg/kg, vehicle 0): 0/100% | Survival rate from sepsis, treated (A. baumannii; ROB23373 (AdeS G318S), 2 x 30mg/kg, vehicle 0): 0/100% | Survival rate from sepsis, treated (A. baumannii; ROB23377 (AdeS R108S), 2 x 30mg/kg, vehicle 0): 0/100% | Survival rate from sepsis, treated (A. baumannii; ROB23380 (adeS ISAba1), 2 x 30mg/kg, vehicle 0): 0/100% | percent inhibition [1]: -11% | percent inhibition [2]: -16% | IC50 (hERG): > 20 µM | hERG IC20 (hERG): > 10 µM
